Data: publication PMC11859092 (Pharmaceutics, 2025)
Values after ≈ are worked out from the molar mass of the structure shown.

Tests used:
[1] = cited from earlier work
ZIKV = assay: Virus yield inhibition assay (PFU); type: cell-based, ZIKV INEVH-116141 strain; conditions: Zika virus, m.o.i. 0.1, 48 h p.i.
DENV-2 = assay: microbe, parasite or virus in culture; type: cell-based, DENV type-2 (DENV-2) strain NGC; conditions: Dengue virus
YFV = assay: microbe, parasite or virus in culture; type: cell-based, YFV vaccine strain YF-17D; conditions: Yellow fever virus
[2] = In vitro cytotoxicity test (MTT); type: cell-based
Description: Thereafter, cell viability was determined by the 3-(4,5-dimethylthiazol-2-yl)-2,5-diphenyl tetrazolium bromide (MTT, Sigma-Aldrich, St. Louis, MO, USA) method at a final concentration 0.5 mg/mL. After 2 h of incubation at 37 °C, the supernatants were removed, ethanol was added to each well to solubilize the formazan crystals and absorbance was measured in a multi-mode microplate reader (FLUOstar® Omega, Labtech, Eschelbronn, Germany) at 595 nm. […] All determinations were performed in triplicate.

[3] = EFV solubilization in Soluplus nanomicelle dispersions (apparent aqueous solubility, RP-HPLC); conditions: distilled water, 25 °C
[4] = cited from earlier work; remark: listed apart in the source

O=C1Nc2ccc(Cl)cc2[C@@](C#CC2CC2)(C(F)(F)F)O1 [EFV, Efavirenz]
Cmax in humans [1]: 4000 ng/mL
EC50 (ZIKV; ZIKV in A549 cells): 4.98 µg/mL (≈ 15.8 µM)
EC50 (ZIKV; ZIKV in Vero cells): 2.41 µg/mL (≈ 7.63 µM)
EC50 (DENV-2; DENV2, A549, 48 h): 2.69 µg/mL (≈ 8.52 µM)
EC50 (DENV-2; DENV2, Vero, 48 h): 8.17 µg/mL (≈ 25.9 µM)
EC50 (YFV; A549, 48 h): 12.6 µg/mL (≈ 39.9 µM)
EC50 (YFV; Vero, 48 h): 1.48 µg/mL (≈ 4.69 µM)
CC50 at 48 h ([2]; African green monkey, Vero): 56.8 µg/mL (≈ 180 µM)
CC50 at 48 h ([2]; human, A549, 48 h): 126 µg/mL (≈ 399 µM)
PM molar partition coefficient (micelle/water) ([3]; Soluplus 1% w/v): 5368
P partition coefficient (micelle/water) ([3]; Soluplus 3% w/v): 1327
PM molar partition coefficient (micelle/water) ([3]; Soluplus 3% w/v): 5220
P partition coefficient (micelle/water) ([3]; Soluplus 5% w/v): 2247
PM molar partition coefficient (micelle/water) ([3]; Soluplus 5% w/v): 5303
P partition coefficient (micelle/water) ([3]; Soluplus 7% w/v): 3667
PM molar partition coefficient (micelle/water) ([3]; Soluplus 7% w/v): 6181
P partition coefficient (micelle/water) ([3]; Soluplus 10% w/v): 4802
PM molar partition coefficient (micelle/water) ([3]; Soluplus 10% w/v): 5666
biopharmaceutical classification system (BCS) class [4]: class II
intrinsic aqueous solubility [4]: 4 µg/mL
